Data as given in the supplement of paper PMC10307832.

Tests used:
Assay in all cases: relative viability (nuclei count vs DMSO), 5 days (fraction); higher = more cells survive
[1] = test system: A-427
Outline: (§1)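 Values are medians from duplicate plates. Each reflects relative viability, defined as the nuclei count of treated wells over that of vehicle wells. Lung cancer cell lines in 1536-well plates were pin-tool dosed one day after seeding with one drug alone or with a fixed anchor-drug dose plus five library-drug doses (not always all listed) in √10 steps, then fixed, stained and imaged at 4× after 5 days.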

[2] = test system: CAL-12T
Outline: as §1

[3] = test system: COR-L 105
Outline: as §1

[4] = test system: EMC-BAC-2
Outline: as §1

[5] = test system: HARA
Outline: as §1

[6] = test system: HCC-366
Outline: as §1

[7] = test system: HCC-827
Outline: as §1

[8] = test system: HOP-62
Outline: as §1

[9] = test system: LCLC-103H
Outline: as §1

[10] = test system: NCI-H1355
Outline: as §1

[11] = test system: NCI-H1395
Outline: as §1

[12] = test system: NCI-H1437
Outline: as §1

[13] = test system: NCI-H1755
Outline: as §1

[14] = test system: NCI-H1792
Outline: as §1

[15] = test system: NCI-H1915
Outline: as §1

[16] = test system: NCI-H1975
Outline: as §1

[17] = test system: NCI-H2009
Outline: as §1

[18] = test system: NCI-H2228
Outline: as §1

[19] = test system: NCI-H23
Outline: as §1

[20] = test system: NCI-H460
Outline: as §1

[21] = test system: NCI-H522
Outline: as §1

[22] = test system: NCI-H727
Outline: as §1

[23] = test system: SK-LU-1
Outline: as §1

[24] = test system: SW 1573
Outline: as §1

C[C@@H]1CN(CC(=O)Nc2ccc3c(c2)Cc2cccc(-c4cc(=O)cc(N5CCOCC5)o4)c2S3)C[C@H](C)O1 + COc1cccc2cc(-c3nc([C@H]4CC[C@H](C(=O)O)CC4)n4ncnc(N)c34)[nH]c12 [OSI-027] (partner 0.5 µM)
relative viability ([1]; first compound 0.04 µM): 0.501 | relative viability ([1]; first compound 0.1265 µM): 0.53 | relative viability ([1]; first compound 0.4 µM): 0.482 | relative viability ([1]; first compound 4 µM): 0.575 | relative viability ([2]; first compound 0.04 µM): 0.734 | relative viability ([2]; first compound 0.1265 µM): 0.675 | relative viability ([2]; first compound 0.4 µM): 0.561 | relative viability ([2]; first compound 4 µM): 0.237 | relative viability ([3]; first compound 0.04 µM): 0.728 | relative viability ([3]; first compound 0.1265 µM): 0.828 | relative viability ([3]; first compound 0.4 µM): 0.823 | relative viability ([3]; first compound 4 µM): 0.661 | relative viability ([4]; first compound 0.04 µM): 0.392 | relative viability ([4]; first compound 0.1265 µM): 0.429 | relative viability ([4]; first compound 0.4 µM): 0.385 | relative viability ([4]; first compound 4 µM): 0.39 | relative viability ([5]; first compound 0.1265 µM): 0.499 | relative viability ([5]; first compound 0.4 µM): 0.251 | relative viability ([5]; first compound 4 µM): 0.412 | relative viability ([6]; first compound 0.04 µM): 1.04 | relative viability ([6]; first compound 0.1265 µM): 0.867 | relative viability ([6]; first compound 0.4 µM): 0.648 | relative viability ([6]; first compound 4 µM): 0.502 | relative viability ([7]; first compound 0.04 µM): 0.775 | relative viability ([7]; first compound 0.1265 µM): 0.738 | relative viability ([7]; first compound 0.4 µM): 0.509 | relative viability ([7]; first compound 4 µM): 0.746 | relative viability ([8]; first compound 0.04 µM): 0.828 | relative viability ([8]; first compound 0.1265 µM): 0.797 | relative viability ([8]; first compound 0.4 µM): 0.763 | relative viability ([8]; first compound 4 µM): 0.881 | relative viability ([9]; first compound 0.04 µM): 0.405 | relative viability ([9]; first compound 0.1265 µM): 0.379 | relative viability ([9]; first compound 0.4 µM): 0.387 | relative viability ([9]; first compound 4 µM): 0.476 | relative viability ([10]; first compound 0.04 µM): 0.447 | relative viability ([10]; first compound 0.1265 µM): 0.472 | relative viability ([10]; first compound 0.4 µM): 0.321 | relative viability ([10]; first compound 4 µM): 0.335 | relative viability ([11]; first compound 0.04 µM): 0.782 | relative viability ([11]; first compound 0.1265 µM): 0.655 | relative viability ([11]; first compound 0.4 µM): 0.539 | relative viability ([11]; first compound 4 µM): 0.612 | relative viability ([12]; first compound 0.04 µM): 0.918 | relative viability ([12]; first compound 0.1265 µM): 0.881 | relative viability ([12]; first compound 0.4 µM): 0.864 | relative viability ([12]; first compound 4 µM): 0.747 | relative viability ([13]; first compound 0.04 µM): 0.697 | relative viability ([13]; first compound 0.1265 µM): 0.651 | relative viability ([13]; first compound 0.4 µM): 0.668 | relative viability ([13]; first compound 4 µM): 0.578 | relative viability ([14]; first compound 0.04 µM): 0.692 | relative viability ([14]; first compound 0.1265 µM): 0.639 | relative viability ([14]; first compound 0.4 µM): 0.633 | relative viability ([14]; first compound 4 µM): 0.458 | relative viability ([15]; first compound 0.04 µM): 0.623 | relative viability ([15]; first compound 0.1265 µM): 0.682 | relative viability ([15]; first compound 0.4 µM): 0.632 | relative viability ([15]; first compound 4 µM): 0.497 | relative viability ([16]; first compound 0.04 µM): 0.74 | relative viability ([16]; first compound 0.1265 µM): 0.602 | relative viability ([16]; first compound 0.4 µM): 0.608 | relative viability ([16]; first compound 4 µM): 0.448 | relative viability ([17]; first compound 0.04 µM): 0.712 | relative viability ([17]; first compound 0.1265 µM): 0.648 | relative viability ([17]; first compound 0.4 µM): 0.613 | relative viability ([17]; first compound 4 µM): 0.448 | relative viability ([18]; first compound 0.04 µM): 0.659 | relative viability ([18]; first compound 0.1265 µM): 0.705 | relative viability ([18]; first compound 0.4 µM): 0.483 | relative viability ([18]; first compound 4 µM): 0.335 | relative viability ([19]; first compound 0.04 µM): 0.732 | relative viability ([19]; first compound 0.1265 µM): 0.572 | relative viability ([19]; first compound 0.4 µM): 0.558 | relative viability ([19]; first compound 4 µM): 0.426 | relative viability ([20]; first compound 0.04 µM): 0.662 | relative viability ([20]; first compound 0.1265 µM): 0.674 | relative viability ([20]; first compound 0.4 µM): 0.587 | relative viability ([20]; first compound 4 µM): 0.253 | relative viability ([21]; first compound 0.04 µM): 0.706 | relative viability ([21]; first compound 0.1265 µM): 0.679 | relative viability ([21]; first compound 0.4 µM): 0.742 | relative viability ([21]; first compound 4 µM): 0.735 | relative viability ([22]; first compound 0.04 µM): 0.546 | relative viability ([22]; first compound 0.1265 µM): 0.485 | relative viability ([22]; first compound 0.4 µM): 0.537 | relative viability ([22]; first compound 4 µM): 0.656 | relative viability ([23]; first compound 0.04 µM): 0.393 | relative viability ([23]; first compound 0.1265 µM): 0.4 | relative viability ([23]; first compound 0.4 µM): 0.386 | relative viability ([23]; first compound 4 µM): 0.237 | relative viability ([24]; first compound 0.04 µM): 0.796 | relative viability ([24]; first compound 0.1265 µM): 0.72 | relative viability ([24]; first compound 0.4 µM): 0.465 | relative viability ([24]; first compound 4 µM): 0.604
